Experimental data: ChEMBL document CHEMBL5518165, “M335, a novel small-molecule STING agonist activates the immune response and exerts antitumor effects” (Eur J Med Chem, 2024)
Calls of active or inactive are those of the source. No cut-off for these calls is given here.

Experiments:
[1] = molecular target: Stimulator of interferon genes protein (Homo sapiens) (UniProt Q86WV6); test: Agonist activity at STING in human THP-1 cells assessed as increase in LC3 protein level by Western blotting analysis; assay type: cell-based
Chain of Stimulator of interferon genes protein (Homo sapiens) (Q86WV6 whole entry): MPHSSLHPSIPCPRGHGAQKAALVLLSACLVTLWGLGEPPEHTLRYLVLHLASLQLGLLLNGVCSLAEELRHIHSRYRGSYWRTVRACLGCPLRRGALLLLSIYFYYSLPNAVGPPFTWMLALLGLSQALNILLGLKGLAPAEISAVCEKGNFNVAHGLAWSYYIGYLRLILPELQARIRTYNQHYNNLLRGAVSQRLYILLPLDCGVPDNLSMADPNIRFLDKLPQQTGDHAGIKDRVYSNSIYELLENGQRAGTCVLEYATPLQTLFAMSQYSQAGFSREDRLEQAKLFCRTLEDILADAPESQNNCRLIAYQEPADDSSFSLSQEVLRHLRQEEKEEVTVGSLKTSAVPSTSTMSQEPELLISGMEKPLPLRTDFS

[2] = molecular target: Stimulator of interferon genes protein (Homo sapiens) (UniProt Q86WV6); test: Agonist activity at STING in human THP-1 cells assessed as increase in IRF3 phosphorylation by Western blotting analysis; assay type: cell-based
[3] = molecular target: Stimulator of interferon genes protein (Homo sapiens) (UniProt Q86WV6); test: Agonist activity at STING in human THP-1 cells assessed as increase in TBK1 phosphorylation by Western blotting analysis; assay type: cell-based
[4] = molecular target: T1, Stimulator of interferon genes protein (Mus musculus) (UniProt Q3TBT3); test: Agonist activity at STING in MEF cells assessed as nuclear transposition of phosphorylated IRF3 incubated for 1 hr by laser scanning confocal microscope analysis; assay type: cell-based; conditions: filed as agonist
T1 sequence (whole entry): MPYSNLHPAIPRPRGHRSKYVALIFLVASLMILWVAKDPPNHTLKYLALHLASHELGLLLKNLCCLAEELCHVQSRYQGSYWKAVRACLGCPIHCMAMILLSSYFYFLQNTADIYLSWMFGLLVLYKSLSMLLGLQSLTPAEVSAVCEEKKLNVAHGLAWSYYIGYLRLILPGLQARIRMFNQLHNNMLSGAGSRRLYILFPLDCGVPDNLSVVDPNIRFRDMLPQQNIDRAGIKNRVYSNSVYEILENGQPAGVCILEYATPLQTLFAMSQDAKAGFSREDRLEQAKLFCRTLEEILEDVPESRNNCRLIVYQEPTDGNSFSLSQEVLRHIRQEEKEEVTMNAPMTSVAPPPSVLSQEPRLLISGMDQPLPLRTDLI

Human alphaherpesvirus 1 = test: Antiviral activity against HSV-1-GFP infected in human STING-deficient WT HeLa cells assessed as reduction in viral infection by fluorescent microscopy analysis; assay type: functional, organism-based
[5] = molecular target: T1, Stimulator of interferon genes protein (Mus musculus); test: Agonist activity at STING in MEF cells assessed as STING translocation to golgi apparatus by measuring increase in red fluorescence incubated for 1 hr by laser scanning confocal microscope analysis; assay type: cell-based; conditions: filed as agonist
[6] = molecular target: T1, Stimulator of interferon genes protein (Mus musculus); test: Agonist activity at STING in MEF cells assessed as STING translocation by measuring aggregation of green fluorescence incubated for 1 hr by laser scanning confocal microscope analysis; assay type: cell-based; conditions: filed as agonist
[7] = molecular target: T1, Stimulator of interferon genes protein (Mus musculus); test: Agonist activity at STING in MEF cells assessed as increase in STING oligomerization by Western blotting analysis; assay type: cell-based; conditions: filed as agonist

Activity [1] | Activity [2] | Activity [3] | Compound | Activity [4] | Activity (Human alphaherpesvirus 1) | Activity [5] | Activity [6] | Activity [7]
inactive | inactive | inactive | CC(NC(=O)CC(c1ccccc1)c1ccccc1)c1ccccc1 (centres undefined) | – | – | – | – | –
inactive | inactive | inactive | C[C@@H](NCCC(c1ccccc1)c1ccccc1)c1ccccc1 | – | – | – | – | –
inactive | inactive | inactive | C[C@H](NCCC(c1ccccc1)c1ccccc1)c1ccccc1 | – | – | – | – | –
– | – | – | Nc1nc2c(ncn2[C@@H]2O[C@@H]3COP(=O)(O)O[C@H]4[C@@H](O)[C@H](n5cnc6c(N)ncnc65)O[C@@H]4COP(=O)(O)O[C@@H]2[C@@H]3O)c(=O)[nH]1 | Active | inactive | Active | Active | Active
